Test system: Chlorella sp. ATCC 7516
Assay: Algal efficacy testing of dry paint films (modified ASTM 5589, 6-well plates)
Assay type: cell-based
Conditions: 3 weeks; for Total conc, ppm (minimum total biocide concentration in paint reaching pass level): pass level >=75% algal growth inhibition, acrylic/silicone paint film on filter paper
Protocol: These paints were then diluted with an antimicrobial free acrylic/silicone based paint and mixed to prepare targeted concentrations of antimicrobial compounds for the testing. The total biocides concentrations tested were 125, 250, 500, 1000, 2000 and 5000 ppm. After biocides addition or dilution, the paints were mixed 90 seconds with the horse power shaker (AXEL 75M3372/Agitateur SO-10MI) until uniformity was achieved. Paints containing different antimicrobial compounds at the same levels were mixed together in order to obtain the desired ratio of antimicrobial compounds. After one day, the paints were applied to Schleicher & Schuell filter paper at 280 μm wft and dried for 3 days at room temperature avoiding direct exposure to sunlight. Square discs (1.6 cm×1.6 cm) were cut out from each panel and were used as the substrate for algal efficacy tests. This sample size allowed for an agar border when the sample disc was placed into the well of the test plate.
Algal efficacy was tested according to modified ASTM 5589 which is a standard accelerated test method for determining resistance of various coatings (including paints) to algal defacement. To accommodate for high-throughput screening, this method was scaled down from petri dishes to 6-well plates. Bold Modified Basal Freshwater Nutrient Solution was used as growth medium. A single coated filter paper coupon was placed with a pair of sterile forceps at the center of the agar plug (on top) with the painted surface facing upwards.
Each well that contains a tested coupon was inoculated with 1750 μl of algal suspensions (1×10^6 cfu/ml) making sure that the whole surface (paint film as well as the agar surrounding it) was evenly covered. The plates were incubated at room temp (21° C.-25° C.) with cyclic exposure to light and dark phases, for a period of three weeks.
At the end of the three week incubation period, the samples were scored for percent inhibition regarding color intensity compared to the blank sample.
The Synergy Index calculation was performed as follows.
The SI is calculated based on F. C.
SI value of <1 in the formula indicates a synergism of the blended biocides exists.
The minimal targeted inhibition was set at 75%, meaning a coupon with at least 75% algal growth inhibition was considered as a pass.

| SMILES | Total conc, ppm (minimum total biocide concentration in paint reaching pass level) | inhibition at 1000 ppm (504 h, at total conc 1000 ppm in paint) | % inhibition (at total conc 500 ppm in paint) |
| --- | --- | --- | --- |
| Cc1ccc(NC(=O)N(C)C)cc1Cl [Chlorotoluron, N′-(3-chloro-4-methylphenyl)-N,N-dimethylurea] | 1000 ppm | 100% | – |
| [O-][n+]1ccccc1[S][Zn][S]c1cccc[n+]1[O-] [ZnPT, bis(2-pyridylthio)zinc 1,1′-dioxide] | 500 ppm | – | 95% |
